Source: US10973832B2, “Muscarinic M1 receptor agonists” (Heptares Therapeutics Limited, priority 2011, dated 2021)

Assays:
Type in all cases: cell-based
[1] = biological target: T1, human muscarinic M4 receptor (Homo sapiens, UniProt P08173); experiment: Phospho-ERK1/2 assay, muscarinic M4; details: for EC50: CHO cells expressing human M4, phospho-ERK1/2 Alphascreen, read-out: pEC50 M4 (converted); for Emax: CHO, read-out: % Emax cf. ACh (M4)
T1 construct: expressed in transfected cells
T1 sequence (P08173 1-479): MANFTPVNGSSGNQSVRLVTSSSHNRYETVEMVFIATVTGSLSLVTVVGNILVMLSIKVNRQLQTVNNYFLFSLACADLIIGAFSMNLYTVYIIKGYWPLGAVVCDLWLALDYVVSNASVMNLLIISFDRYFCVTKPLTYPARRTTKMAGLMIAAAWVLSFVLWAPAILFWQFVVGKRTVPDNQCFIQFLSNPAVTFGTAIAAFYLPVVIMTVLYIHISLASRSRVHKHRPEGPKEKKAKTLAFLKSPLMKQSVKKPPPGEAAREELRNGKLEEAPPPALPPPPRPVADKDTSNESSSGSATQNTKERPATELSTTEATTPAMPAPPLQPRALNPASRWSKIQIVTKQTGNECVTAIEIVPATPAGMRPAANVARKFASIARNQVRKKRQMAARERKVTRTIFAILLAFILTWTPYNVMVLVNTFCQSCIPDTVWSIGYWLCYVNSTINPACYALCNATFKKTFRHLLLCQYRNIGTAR
Protocol: (§1) Functional assays were performed using the Alphascreen Surefire phospho-ERK1/2 assay (Crouch & Osmond, Comb. Chem. High Throughput Screen, 2008). ERK1/2 phosphorylation is a downstream consequence of both Gq/11 and Gi/o protein coupled receptor activation, making it highly suitable for the assessment of M1, M3 (Gq/11 coupled) and M2, M4 receptors (Gi/o coupled), rather than using different assay formats for different receptor subtypes. CHO cells stably expressing the human muscarinic M1, M2, M3 or M4 receptor were plated (25K/well) onto 96-well tissue culture plates in MEM-alpha+10% dialysed FBS. Once adhered, cells were serum-starved overnight. Agonist stimulation was performed by the addition of 5 μL agonist to the cells for 5 min (37° C.). Media was removed and 50 μL of lysis buffer added. After 15 min, a 4 μL sample was transferred to 384-well plate and 7 μL of detection mixture added. Plates were incubated for 2 h with gentle agitation in the dark and then read on a PHERAstar plate reader.
(§2) pEC50 and Emax figures were calculated from the resulting data for each receptor subtype.

[2] = biological target: T2, human muscarinic M1 receptor (Homo sapiens, UniProt P11229); experiment: Phospho-ERK1/2 assay, muscarinic M1; details: for EC50: CHO cells expressing human M1, phospho-ERK1/2 Alphascreen, read-out: pEC50 M1 (converted); for Emax: CHO, read-out: % Emax cf. ACh (M1)
T2 sequence (P11229 1-460): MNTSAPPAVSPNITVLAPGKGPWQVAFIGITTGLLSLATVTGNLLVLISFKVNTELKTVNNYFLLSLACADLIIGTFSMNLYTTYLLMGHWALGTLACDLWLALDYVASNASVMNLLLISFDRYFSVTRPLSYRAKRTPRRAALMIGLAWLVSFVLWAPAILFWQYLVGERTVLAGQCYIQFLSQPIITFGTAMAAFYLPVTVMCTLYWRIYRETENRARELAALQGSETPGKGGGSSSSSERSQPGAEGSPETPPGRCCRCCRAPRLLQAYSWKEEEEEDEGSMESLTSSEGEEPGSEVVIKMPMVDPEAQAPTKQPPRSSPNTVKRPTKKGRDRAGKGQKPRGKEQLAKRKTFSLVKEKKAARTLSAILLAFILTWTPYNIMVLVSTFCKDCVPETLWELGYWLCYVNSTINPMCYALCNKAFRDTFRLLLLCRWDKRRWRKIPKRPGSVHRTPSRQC
Protocol: as §1, §2

[3] = biological target: T3, human muscarinic M2 receptor (Homo sapiens, UniProt P08172); experiment: Phospho-ERK1/2 assay, muscarinic M2; details: for EC50: CHO cells expressing human M2, phospho-ERK1/2 Alphascreen, read-out: pEC50 M2 (converted); for Emax: CHO, read-out: % Emax cf. ACh (M2)
T3 sequence (P08172 1-466): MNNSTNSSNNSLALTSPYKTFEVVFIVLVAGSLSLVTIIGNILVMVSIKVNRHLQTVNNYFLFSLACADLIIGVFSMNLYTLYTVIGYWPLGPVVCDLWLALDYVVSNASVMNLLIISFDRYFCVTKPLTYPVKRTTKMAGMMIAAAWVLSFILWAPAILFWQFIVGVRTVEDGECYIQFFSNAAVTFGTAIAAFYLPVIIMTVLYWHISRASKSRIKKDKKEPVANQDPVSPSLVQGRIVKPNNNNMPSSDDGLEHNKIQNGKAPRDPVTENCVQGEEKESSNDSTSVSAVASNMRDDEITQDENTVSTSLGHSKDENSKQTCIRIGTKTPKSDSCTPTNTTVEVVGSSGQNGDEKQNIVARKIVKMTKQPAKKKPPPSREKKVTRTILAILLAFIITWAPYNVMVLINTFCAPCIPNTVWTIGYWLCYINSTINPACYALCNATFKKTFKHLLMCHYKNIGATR
Protocol: as §1, §2

[4] = biological target: T4, human muscarinic M3 receptor (Homo sapiens, UniProt P20309); experiment: Phospho-ERK1/2 assay, muscarinic M3; details: for EC50: CHO cells expressing human M3, phospho-ERK1/2 Alphascreen, read-out: pEC50 M3 (converted); for Emax: CHO, read-out: % Emax cf. ACh (M3)
T4 construct: expressed in transfected cells
Protocol: as §1, §2

T4 sequence (P20309 whole entry): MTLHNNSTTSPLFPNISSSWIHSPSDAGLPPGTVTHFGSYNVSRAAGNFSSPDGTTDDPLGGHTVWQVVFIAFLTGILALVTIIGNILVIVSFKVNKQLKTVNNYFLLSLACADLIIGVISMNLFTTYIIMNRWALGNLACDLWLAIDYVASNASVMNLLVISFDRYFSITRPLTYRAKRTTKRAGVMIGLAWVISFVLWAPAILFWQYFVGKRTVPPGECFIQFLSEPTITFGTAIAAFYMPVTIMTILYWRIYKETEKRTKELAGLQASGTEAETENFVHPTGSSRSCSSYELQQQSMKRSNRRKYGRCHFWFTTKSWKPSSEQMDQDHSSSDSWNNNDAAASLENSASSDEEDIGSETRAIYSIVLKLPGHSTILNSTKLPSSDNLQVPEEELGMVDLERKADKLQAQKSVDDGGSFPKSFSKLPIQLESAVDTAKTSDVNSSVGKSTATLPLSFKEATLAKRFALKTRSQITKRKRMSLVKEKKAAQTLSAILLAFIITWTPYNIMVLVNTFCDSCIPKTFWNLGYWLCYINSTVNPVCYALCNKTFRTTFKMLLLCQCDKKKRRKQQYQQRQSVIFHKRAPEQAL

## CCOC(=O)N1CCCC(N2CCC(C)(C(=O)NC3(C)CCC3)CC2)CC1 (centres unmarked) [Example 78, ethyl 4-{4-methyl-4-[(1-methylcyclobutyl)carbamoyl]piperidin-1-yl}azepane-1-carboxylate]
[1]
  EC50: 417 nM
  Emax: 51%
[2]
  EC50: 42.7 nM
  Emax: 115%
[3]
  EC50: > 20000 nM
  Emax: 5%
[4]
  EC50: > 20000 nM
  Emax: 0%

## CCOC(=O)N1CCCC(N2CCC(C(=O)NCC3(CC)CCC3)CC2)CC1 (centres unmarked) [Example 37, ethyl 4-(4-(((1-ethylcyclobutyl)methyl)carbamoyl)piperidin-1-yl)azepane-1-carboxylate]
[1]
  EC50: 191 nM
  Emax: 75%
[2]
  EC50: 13.8 nM
  Emax: 87%
[3]
  EC50: > 20000 nM
  Emax: 8%
[4]
  EC50: > 20000 nM
  Emax: 10%

## CCOC(=O)N1CCCC(N2CCC(C(=O)N(CC)CC3CC3)CC2)CC1 (centres unmarked) [Example 26, ethyl 4-(4-((cyclopropylmethyl)(ethyl)carbamoyl)piperidin-1-yl)azepane-1-carboxylate]
[1]
  EC50: 309 nM
  Emax: 51%
[2]
  EC50: 447 nM
  Emax: 95%
[3]
  EC50: > 20000 nM
  Emax: 7%
[4]
  EC50: > 20000 nM
  Emax: 0%

## C#CCOC(=O)N1CCCC(N2CCC(C(=O)NCC(C)C)CC2)CC1 (centres unmarked) [Example 57, prop-2-yn-1-yl-4-(4-((2-methylpropyl)carbamoyl)piperidin-1-yl)azepane-1-carboxylate]
[1]
  EC50: 417 nM
  Emax: 82%
[2]
  EC50: 93.3 nM
  Emax: 93%
[3]
  EC50: > 20000 nM
  Emax: 5%
[4]
  EC50: > 20000 nM
  Emax: 8%

## CCOC(=O)N1CCCC(N2CCC(F)(C(=O)NCC3CCCC3)CC2)CC1 (centres unmarked) [Example 53, ethyl 4-(4-fluoro-4-((cyclopentylmethyl)carbamoyl)piperidin-1-yl)azepane-1-carboxylate]
[1]
  EC50: 977 nM
  Emax: 90%
[2]
  EC50: 97.7 nM
  Emax: 122%
[3]
  EC50: > 20000 nM
  Emax: 9%
[4]
  EC50: > 20000 nM
  Emax: 17%

## CCOC(=O)N1CCCC(N2CCC(C(=O)NCC3CC3)CC2)CC1 (centres unmarked) [Example 15, ethyl 4-(4-((cyclopropylmethyl)carbamoyl)piperidin-1-yl)azepane-1-carboxylate]
[1]
  EC50: 550 nM
  Emax: 67%
[2]
  EC50: 112 nM
  Emax: 107%
[3]
  EC50: > 20000 nM
  Emax: 5%
[4]
  EC50: > 20000 nM
  Emax: 12%

## CCOC(=O)N1CCCC(N2CCC(C(=O)NCC3(C)CCC3)CC2)CC1 (centres unmarked) [Example 69, ethyl 4-(4-{[(1-methylcyclobutyl)methyl]carbamoyl}piperidin-1-yl)azepane-1-carboxylate]
[1]
  EC50: 240 nM
  Emax: 78%
[2]
  EC50: 10.5 nM
  Emax: 120%
[3]
  EC50: > 20000 nM
  Emax: 12%
[4]
  EC50: > 20000 nM
  Emax: 14%

## CCOC(=O)N1CCCC(N2CCC(C)(C(=O)NCC(C)C)CC2)CC1 (centres unmarked) [Example 56, ethyl 4-(4-methyl-4-((2-methylpropyl)carbamoyl)piperidin-1-yl)azepane-1-carboxylate]
[1]
  EC50: 1350 nM
  Emax: 46%
[2]
  EC50: 64.6 nM
  Emax: 108%
[3]
  EC50: > 20000 nM
  Emax: 4%
[4]
  EC50: > 20000 nM
  Emax: 8%

## CCOC(=O)N1CCC[C@H](N2CCC(C(=O)NC(C)(C)C)CC2)CC1 [Example 67, ethyl (4S)-4-[4-(tert-butylcarbamoyl)piperidin-1-yl]azepane-1-carboxylate]
[1]
  EC50: 501 nM
  Emax: 104%
[2]
  EC50: 126 nM
  Emax: 114%
[3]
  EC50: > 20000 nM
  Emax: 48%
[4]
  EC50: > 20000 nM
  Emax: 4%

## CCOC(=O)N1CCCC(N2CCC(C(=O)NC3(CC)CCC3)CC2)CC1 (centres unmarked) [Example 74]
[1]
  EC50: 282 nM
  Emax: 97%
[2]
  EC50: 52.5 nM
  Emax: 132%
[3]
  EC50: > 20000 nM
  Emax: 19%
[4]
  EC50: > 20000 nM
  Emax: 4%
